Key:
Format in all cases: in vivo
[1] = test system: Avena (Ave); assay: Example B4 post-emergence herbicidal action, MERGE oil additive 0.7% (Table B4); design: key: 1=total damage; 9=no action; conditions: 500 g of active substance per hectare; applied at 3- to 6-leaf stage; MERGE oil additive 0.7% by weight of the spray mixture; evaluation 3 weeks after application; scale of nine ratings
Procedure: (§1) Monocotyledonous and dicotyledonous weeds are grown in standard soil in plastics pots under greenhouse conditions. The test substances are applied to the test plants at the 3- to 6-leaf stage. The test substances are applied at a rate of application of 500 g of active substance per hectare in the form of an aqueous suspension (prepared from a 25% wettable powder (Example F3, b)) or in the form of an emulsion (prepared from a 25% emulsifiable concentrate (Example F1, c)) (500 liters of water/ha). The evaluation is carried out 3 weeks after application, using a scale of nine ratings (1=total damage, 9=no action). Ratings of from 1 to 4 (especially from 1 to 3) indicate good to very good herbicidal action. Herbicidal Action After the Emergence of the Plants (Post-emergence Action) of Compounds of the Present Invention (for Description See Example B2) Test plants: Avena (Ave), Lolium (Lol), Setaria (Set).

[2] = test system: Lolium (Lol); assay: as above; design: key: 1=total damage; 9=no action; conditions: 500 g of active substance per hectare; applied at 3- to 6-leaf stage; MERGE oil additive 0.7% by weight of the spray mixture; evaluation 3 weeks after application; scale of nine ratings
Procedure: as §1

[3] = test system: Setaria (Set); assay: as above; design: key: 1=total damage; 9=no action; conditions: 500 g of active substance per hectare; applied at 3- to 6-leaf stage; MERGE oil additive 0.7% by weight of the spray mixture; evaluation 3 weeks after application; scale of nine ratings
Procedure: as §1

[4] = test system: Avena (Ave); assay: Example B3 pre-emergence herbicidal action, MERGE oil additive 0.7% (Table B3); design: key: 1=total damage; 9=no action; conditions: 500 g of active substance/ha; MERGE oil additive 0.7% by weight of the spray mixture; evaluation 3 weeks after application; scale of nine ratings
Procedure: (§2) Monocotyledonous and dicotyledonous weeds are sown in standard soil in plastics pots. Immediately after sowing, the test substances are applied in the form of an aqueous suspension (prepared from a 25% wettable powder (Example F3, b)) or in the form of an emulsion (prepared from a 25% emulsifiable concentrate (Example F1, c)) (500 liters of water/ha). The rate of application is 500 g of active substance/ha. The test plants are then grown in the greenhouse under optimum conditions. The evaluation is carried out 3 weeks after application, sing a scale of nine ratings (1=total damage, 9=no action). Ratings of from 1 to 4 (especially from 1 to 3) indicate good to very good herbicidal action. Test plants: Avena (Ave), Lolium (Lol), Setaria (Set).

[5] = test system: Lolium (Lol); assay: as above; design: key: 1=total damage; 9=no action; conditions: 500 g of active substance/ha; MERGE oil additive 0.7% by weight of the spray mixture; evaluation 3 weeks after application; scale of nine ratings
Procedure: as §2

[6] = test system: Setaria (Set); assay: as above; design: key: 1=total damage; 9=no action; conditions: 500 g of active substance/ha; MERGE oil additive 0.7% by weight of the spray mixture; evaluation 3 weeks after application; scale of nine ratings
Procedure: as §2

[7] = test system: Alopecurus (Alo); assay: Example B1 pre-emergence herbicidal action (comparison test); design: key: 1=total damage; 9=no action; conditions: 500 g of active ingredient/ha; 3 weeks after application; scale of nine ratings, 1 to 4 = good to very good action
Procedure: (§3) Monocotyledonous and dicotyledonous weeds are sown in plastics pots in standard soil. Immediately after sowing, the test substances are applied in the form of an aqueous suspension (prepared from a 25% wettable powder (Example F3, b)) or in the form of an emulsion (prepared from a 25% emulsifiable concentrate (Example F1, c)) (500 liters of water/ha). The rate of application is 500 g of active substance/ha. The test plants are then grown in the greenhouse under optimum conditions. The evaluation is carried out 3 weeks after application, using a scale of nine ratings (1=total damage, 9=no action). Ratings of from 1 to 4 (especially from 1 to 3) indicate good to very good herbicidal action. Test plants: Alopecurus (Alo), Avena (Ave), Lolium (Lol), Setaria (Set), Panicum (Pan), Sorghum (Sor), Digitaria (Dig), Echinochloa (Ech) and Brachiaria (Bra).

[8] = test system: Avena (Ave); assay: as above; design: key: 1=total damage; 9=no action; conditions: 500 g of active ingredient/ha; 3 weeks after application; scale of nine ratings, 1 to 4 = good to very good action
Procedure: as §3

[9] = test system: Brachiaria (Bra); assay: as above; design: key: 1=total damage; 9=no action; conditions: 500 g of active ingredient/ha; 3 weeks after application; scale of nine ratings, 1 to 4 = good to very good action
Procedure: as §3

[10] = test system: Echinochloa (Ech); assay: as above; design: key: 1=total damage; 9=no action; conditions: 500 g of active ingredient/ha; 3 weeks after application; scale of nine ratings, 1 to 4 = good to very good action
Procedure: as §3

[11] = test system: Lolium (Lol); assay: as above; design: key: 1=total damage; 9=no action; conditions: 500 g of active ingredient/ha; 3 weeks after application; scale of nine ratings, 1 to 4 = good to very good action
Procedure: as §3

[12] = test system: Panicum (Pan); assay: as above; design: key: 1=total damage; 9=no action; conditions: 500 g of active ingredient/ha; 3 weeks after application; scale of nine ratings, 1 to 4 = good to very good action
Procedure: as §3

[13] = test system: Setaria (Set); assay: as above; design: key: 1=total damage; 9=no action; conditions: 500 g of active ingredient/ha; 3 weeks after application; scale of nine ratings, 1 to 4 = good to very good action
Procedure: as §3

[14] = test system: Sorghum (Sor); assay: as above; design: key: 1=total damage; 9=no action; conditions: 500 g of active ingredient/ha; 3 weeks after application; scale of nine ratings, 1 to 4 = good to very good action
Procedure: as §3

[15] = test system: Digitaria (Dig); assay: as above; conditions: 500 g of active ingredient/ha; 3 weeks after application; scale of nine ratings, 1 to 4 = good to very good action
Procedure: as §3

[16] = test system: Alopecurus (Alo); assay: Example B2 post-emergence herbicidal action (comparison test); design: key: 1=total damage; 9=no action; conditions: 250 g of active ingredient/ha; 3- to 6-leaf stage; 3 weeks after application; scale of nine ratings, 1 to 4 = good to very good action
Procedure: (§4) Monocotyledonous and dicotyledonous weeds are grown in standard soil in plastics pots under greenhouse conditions. The test substances are applied to the test plants at the 3- to 6-leaf stage. […] suspension (prepared from a 25% wettable powder (Example F3, b)) or in the form of an emulsion (prepared from a 25% emulsifiable concentrate (Example F1, c)) (500 liters of water/ha). The evaluation is carried out 3 weeks after application, using a scale of nine ratings (1=total damage, 9=no action). Ratings of from 1 to 4 (especially from 1 to 3) indicate good to very good herbicidal action. Test plants: Alopecurus (Alo), Avena (Ave), Lolium (Lol), Setaria (Set), Panicum (Pan), Sorghum (Sor), Digitaria (Dig), Echinocloa (Ech) and Brachiaria (Bra).

[17] = test system: Avena (Ave); assay: as above; design: key: 1=total damage; 9=no action; conditions: 250 g of active ingredient/ha; 3- to 6-leaf stage; 3 weeks after application; scale of nine ratings, 1 to 4 = good to very good action
Procedure: as §4

[18] = test system: Brachiaria (Bra); assay: as above; design: key: 1=total damage; 9=no action; conditions: 250 g of active ingredient/ha; 3- to 6-leaf stage; 3 weeks after application; scale of nine ratings, 1 to 4 = good to very good action
Procedure: as §4

[19] = test system: Echinocloa (Ech); assay: as above; design: key: 1=total damage; 9=no action; conditions: 250 g of active ingredient/ha; 3- to 6-leaf stage; 3 weeks after application; scale of nine ratings, 1 to 4 = good to very good action
Procedure: as §4

[20] = test system: Lolium (Lol); assay: as above; design: key: 1=total damage; 9=no action; conditions: 250 g of active ingredient/ha; 3- to 6-leaf stage; 3 weeks after application; scale of nine ratings, 1 to 4 = good to very good action
Procedure: as §4

[21] = test system: Panicum (Pan); assay: as above; design: key: 1=total damage; 9=no action; conditions: 250 g of active ingredient/ha; 3- to 6-leaf stage; 3 weeks after application; scale of nine ratings, 1 to 4 = good to very good action
Procedure: as §4

[22] = test system: Setaria (Set); assay: as above; design: key: 1=total damage; 9=no action; conditions: 250 g of active ingredient/ha; 3- to 6-leaf stage; 3 weeks after application; scale of nine ratings, 1 to 4 = good to very good action
Procedure: as §4

[23] = test system: Sorghum (Sor); assay: as above; design: key: 1=total damage; 9=no action; conditions: 250 g of active ingredient/ha; 3- to 6-leaf stage; 3 weeks after application; scale of nine ratings, 1 to 4 = good to very good action
Procedure: as §4

[24] = test system: Digitaria (Dig); assay: as above; conditions: 250 g of active ingredient/ha; 3- to 6-leaf stage; 3 weeks after application; scale of nine ratings, 1 to 4 = good to very good action
Procedure: as §4

Row | Compound | Post-emergence action, rating, Ave [1] | Post-emergence action, rating, Lol [2] | Post-emergence action, rating, Set [3] | also measured
1 | CCc1cc(C)cc(CC)c1-c1c(O)n2n(c1=O)CC(OCC(=O)OC)CC2 (stereo not drawn) [1.23] | 1 | 1 | 1 | 
2 | CCc1cc(C)cc(CC)c1-c1c(O)n2n(c1=O)CC(OC(C)C(=O)OC)CC2 (stereo not drawn) [1.26] | 1 | 2 | 1 | 
3 | CCc1cc(C)cc(CC)c1-c1c(O)n2n(c1=O)CC1OC3(CCCCC3)OC1C2 (stereo not drawn) [1.27] | 1 | 1 | 2 | 
4 | CCc1cc(C)cc(CC)c1-c1c(O)n2n(c1=O)CC(=NOC)CC2 [1.30] | 1 | 1 | 1 | 
5 | CCc1cc(C)cc(CC)c1-c1c(O)n2n(c1=O)CC(OCCOCCOC)C(O)C2 (stereo not drawn) [1.35] | 1 | 1 | 1 | Pre-emergence action, rating, Ave [4]: 1; Pre-emergence action, rating, Lol [5]: 1; Pre-emergence action, rating, Set [6]: 1
6 | CCc1cc(C)cc(CC)c1-c1c(O)n2n(c1=O)CC(O)C(O)C2 (stereo not drawn) [1.39] | 1 | 1 | 1 | 
7 | CCc1cc(C)cc(CC)c1-c1c(OC(=O)C(C)(C)C)n2n(c1=O)CC(O)C(O)C2 (stereo not drawn) [1.40] | 1 | 1 | 2 | 
8 | CCc1cc(C)cc(CC)c1-c1c(OC(=O)C(C)(C)C)n2n(c1=O)CCC(F)(F)CC2 [1.43] | 1 | 2 | 2 | 
9 | Cc1cc(C)c(-c2c(OC(=O)C(C)(C)C)n3n(c2=O)CCCC3)c(C)c1 [compound A, reference compound] |  |  |  | Pre-emergence action rating, Alo [7]: 2; Pre-emergence action, rating, Ave [8]: 4; Pre-emergence action rating, Bra [9]: 3; Pre-emergence action rating, Ech [10]: 5; Pre-emergence action, rating, Lol [11]: 1; Pre-emergence action rating, Pan [12]: 1; Pre-emergence action, rating, Set [13]: 2; Pre-emergence action rating, Sor [14]: 4; Pre-emergence action rating, Dig [15]: 4; Post-emergence action rating, Alo [16]: 3; Post-emergence action, rating, Ave [17]: 3; Post-emergence action rating, Bra [18]: 2; Post-emergence action rating, Ech [19]: 1; Post-emergence action, rating, Lol [20]: 2; Post-emergence action rating, Pan [21]: 1; Post-emergence action, rating, Set [22]: 2; Post-emergence action rating, Sor [23]: 3; Post-emergence action rating, Dig [24]: 2
